The text below walks through data of paper PMC8728441, “Biosynthesis of the redox cofactor mycofactocin is controlled by the transcriptional regulator MftR and induced by long-chain acyl-CoA species” (The Journal of Biological Chemistry, 2021).

One test addresses MftR (WT) (Mycolicibacterium smegmatis, UniProt A0QSB5). Nature of the test: ITC binding of acyl-CoAs to MftR. The arrangement: species or system Mycobacterium smegmatis mc^2155. As to the method: (§1) ITC was performed using TA Nano ITC. MftR was loaded in the sample cell at the concentration of 16 and 250 μM acyl-CoAs (C12–C18) loaded in the syringe. To minimize the effect of buffer mismatch, the stock concentration of acyl-CoAs was prepared using ITC buffer (50 mM Hepes, 50 mM NaCl, and pH 7.5), and the pH was adjusted to within 0.05 units. In addition, MftR was buffer exchanged into ITC buffer using a PD-10 column (GE Life Sciences). The volume of the titrant added at each injection into the sample cell was 2.22 μl. The time interval between the successive injections was 180 s. The temperature of the cell was kept at 25 °C. The data obtained were fit by independent one-site model using NanoAnalyze Data Analysis, version 3.8.0, that was provided with the instrument.

A further test relates to MftR–Omft complex. Nature of the test: Competitive EMSA screen for effectors of MftR. It counts as binding, Mycobacterium smegmatis mc^2155. The note with it: 6-FAM Omft 0.5 μM, MftR 5 μM, effectors 100 μM. As for the experimental part:
Next, we assessed which metabolites activate MftR and thus could induce MFT production. To do so, we carried out competitive EMSAs where FAM-labeled Omft and MftR were incubated in the presence of potential effectors. We initially chose our effectors based on cholesterol catabolism, a process that putatively includes MFT biosynthetic genes ([38]). […] Knowing that TFRs have a propensity to be activated by fatty acyl-CoAs ([20]), we expanded our effector screening to include short-chain, medium-chain, and long-chain acyl-CoAs.
Figure 4 Effectors of MftR.A, an EMSA used to screen effectors of MftR. The 6-FAM–labeled Omft region (0.5 μM) was incubated with the MftR (5 μM) in the absence or the presence of effectors (100 μM). Protein–DNA complexes were separated by electrophoresis on 5% polyacrylamide gel. […] B, a representative isothermal titration calorimetry thermogram for the binding of the oleoyl-CoA to MftR regulator (blue) and the control of oleoyl-CoA into buffer (red). Each peak corresponds to the injection of 2.22 μl of 250 μM oleoyl-CoA into the cell containing 16 μM MftR or buffer. The integrated thermogram (blue dots) was fitted to a single-site binding model (black line) to determine the Kd. […] C, a bar graph depicting the ITC measured Kds for various acyl-CoAs. Bars represent the mean of three independent experiments, and the error bars represent the standard deviation of the experiments. 6-FAM, 6-carboxyfluorescein; ITC, isothermal titration calorimetry; Omft, mft operator.
His-tagged MftR was used to assess the protein binding to Pmft–MftA promoter fragment. DNA was mixed with increasing concentrations of the MftR protein in the reaction buffer (50 mM Hepes, 50 mM NaCl 0.1 mM EDTA, and pH 7.5) and incubated at room temperature for 10 min. The reactions were resolved by electrophoresis on a 5% (v/v) nondenaturing polyacrylamide gel in 1× Tris/borate/EDTA buffer at 200 V for 20 min on ice. Prior to the analysis, the gel was prerun for 30 min at 150 V on ice. Results were visualized by GelRed and recorded using Azure Biosystems 600 imaging system.
A general note: In EMSA bound probe runs differently from free probe, usually more slowly.

The target in test [1] is MftR S67W. Nature of the test: ITC binding of oleoyl-CoA to MftR variant. On the set-up: species or system Mycobacterium smegmatis mc^2155. The following applies: S67W mutation vs WT, ITC.
Text: (§2) Next, we examined which amino acid residues contribute to the interaction between MftR and oleoyl-CoA. The crystal structure of Msmeg MftR is currently unavailable; however, an unpublished structure of Rhodococcus jostii RHA1 MftR has been deposited in the Protein Data Bank (PDB) (PDB ID: 2RAE, 54% identical, Fig. S3). Using this structure, we employed SwissDock to model oleoyl-CoA bound to MftR (Fig. 5) ([41], [42]). From the docked structure, we identified eight conserved residues on MftR that were expected to create the acyl-binding pocket or bind CoA through electrostatic interactions. Following single amino acid replacements of the residues, we measured the Kd values of the mutant proteins to oleoyl-CoA using ITC. For the putative acyl-binding pocket residues Phe65, Phe96, and Ile114, mutations to alanine led to no or modest change to the Kd for oleoyl-CoA (Table 1). […] Conversely, when His68 was mutated to alanine, binding of oleoyl-CoA by the protein was undetectable. To validate this observation, competitive EMSAs were carried out using the H68A mutant. […] Thus, it is highly likely that His68 is an important residue for oleoyl-CoA binding. To evaluate residues that were expected to interact with CoA, Gln15, Asp16, Ser67, and Asp66 were targeted. Of these, mutants of Asp16 and Ser67 had the greatest effect (Table 1). […] This latter observation was validated using competitive EMSAs (Fig. S4B). […] Taken together, it is likely that Ser67 and Asp16 participate in oleoyl-CoA binding, likely through electrostatic interactions.
(§3) Mutant strand synthesis reactions were performed according to the Agilent QuikChange site-directed mutagenesis protocol. The mftR_pET28a plasmid was used as a template for site-directed mutagenesis studies. Sequence-verified plasmids were transformed into E. coli BL21(DE3) pLysS cells for protein production and purified using the same protocol as wildtype MftR.
as §1

A further test addresses T1, MftR Q15A (Mycolicibacterium smegmatis, UniProt A0QSB5, Q15A).
T1 sequence (A0QSB5 1-200 Q15A): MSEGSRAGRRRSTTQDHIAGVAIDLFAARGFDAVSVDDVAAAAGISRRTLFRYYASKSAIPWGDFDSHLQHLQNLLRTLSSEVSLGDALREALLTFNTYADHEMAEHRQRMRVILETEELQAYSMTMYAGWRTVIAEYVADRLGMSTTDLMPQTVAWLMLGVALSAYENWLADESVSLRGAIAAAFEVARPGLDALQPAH
Nature of the test: ITC binding of oleoyl-CoA to MftR variant. On the set-up: species or system Mycobacterium smegmatis mc^2155.
Text: as §2, §3, §1

The target in the next test is T2, MftR F96A (Mycolicibacterium smegmatis, UniProt A0QSB5, F96A).
T2 sequence (A0QSB5 1-200 F96A): T1 sequence (A0QSB5 1-200 Q15A)
Nature of the test: ITC binding of oleoyl-CoA to MftR variant. The arrangement: species or system Mycobacterium smegmatis mc^2155.
Text: as §2, §3, §1

Another test addresses T3, MftR F65A (Mycolicibacterium smegmatis, UniProt A0QSB5, F65A).
T3 sequence (A0QSB5 1-200 F65A): T1 sequence (A0QSB5 1-200 Q15A)
The test is described as follows: ITC binding of oleoyl-CoA to MftR variant. On the set-up: species or system Mycobacterium smegmatis mc^2155.
Text: as §2, §3, §1

A further test has as its target MftR D16R. The test is described as follows: ITC binding of oleoyl-CoA to MftR variant. On the set-up: species or system Mycobacterium smegmatis mc^2155. The note with it: ND = not detected.
Text: as §2, §3, §1

Test [2] has as its target T4, MftR S67W (Mycolicibacterium smegmatis, UniProt A0QSB5, S67W).
T4 sequence (A0QSB5 1-200 S67W): T1 sequence (A0QSB5 1-200 Q15A)
The test is described as follows: ITC binding of oleoyl-CoA to MftR variant. On the set-up: species or system Mycobacterium smegmatis mc^2155.
Text: as §2, §3, §1

Another test concerns the target MftR H68A. The test is described as follows: ITC binding of oleoyl-CoA to MftR variant. The note with it: ND = not detected. The arrangement: species or system Mycobacterium smegmatis mc^2155.
Text: as §2, §3, §1

For the next test, the target named is T5, MftR S67A (Mycolicibacterium smegmatis, UniProt A0QSB5, S67A).
T5 sequence (A0QSB5 1-200 S67A): T1 sequence (A0QSB5 1-200 Q15A)
The test is described as follows: ITC binding of oleoyl-CoA to MftR variant. On the set-up: species or system Mycobacterium smegmatis mc^2155.
Text: as §2, §3, §1

Each structure is given as a SMILES string.

`CCCCCCCC/C=C\CCCCCCCC(=O)SCCNC(=O)CCNC(=O)[C@H](O)C(C)(C)COP(=O)(O)OP(=O)(O)OC[C@H]1O[C@@H](n2cnc3c(N)ncnc32)[C@H](O)[C@@H]1OP(=O)(O)O` [oleoyl-CoA]: the Kd (in general, the concentration at which binding is half-saturated) was 1400 ± 100 nM on MftR (WT); 2000 ± 100 nM on MftR Q15A; 1400 ± 100 nM on MftR F96A; 1900 ± 100 nM at MftR F65A; “no longer detectable” on MftR D16R; 8300 ± 200 nM at MftR S67W [2]. The Kd entry was “undetectable” on MftR H68A and 5400 ± 200 nM at MftR S67A. In addition, the “number of binding sites” value on MftR (WT) (ITC, WT MftR, one-site model) is recorded as roughly 0.6 sites per monomer MftR. Moreover, the “disruption of the MftR–Omft complex (DNA release)” value in the test on MftR–Omft complex is reported as “disrupted the MftR–Omft complex”. Further, on MftR S67W [1], the “increase in the Kd value for oleoyl-CoA” value is “eightfold increase”.
